Results taken from patent US7700628B2, “Aromatic ether derivatives useful as thrombin inhibitors” (Eli Lilly and Company, priority 2004, dated 2010).
Where a name gives a salt, the structure may show the parent alone.

Columns and labels:
human factor Xa = molecular target: T1, human factor Xa (Homo sapiens, UniProt P00742); experiment: Kass determination, chromogenic substrate hydrolysis, factor Xa; assay type: biochemical; conditions: apparent association constant, mean value; set range given with 'or greater'
T1 construct: enzyme solution (e.g., human factor Xa, 32 nM in 0.03 M Tris, 0.15 M NaCl, 1 mg/mL HAS)
Experimental: (§1) The inhibition by a compound of the invention of a serine protease of the human blood coagulation system or of the fibrinolytic system, as well as of trypsin, is determined in vitro for the particular enzyme by measuring its inhibitor binding affinity in an assay in which the enzyme hydrolyzes a particular chromogenic substrate, for example as described in Smith, G. F.; Gifford-Moore, D.; Craft, T. J.; Chirgadze, N.; Ruterbories, K. J.; Lindstrom, T. D.; Satterwhite, J. H. Efegatran: A New Cardiovascular Anticoagulant. New Anticoagulants for the Cardiovascular Patient; Pifarre, R., Ed.; Hanley & Belfus, Inc.: Philadelphia, 1997; pp. 265-300. The inhibitor binding affinity is measured as apparent association constant Kass which is the hypothetical equilibrium constant for the reaction between enzyme and the test inhibitor compound (I).
(§2) [formula] [formula] Conveniently, enzyme inhibition kinetics are performed in a high-volume protocol using automated dilutions of inhibitors (n=3 for each of four to eight inhibitor concentrations) into 96-well polystyrene plates and reaction rates are determined from the rate of hydrolysis of appropriate p-nitroanilide substrates at 405 nm using a Thermomax plate reader from Molecular Devices (San Francisco, Calif.). The same general protocol is followed for all enzymes studied: In each well is placed 50 μL buffer (0.06 M Tris, 0.3 M NaCl, pH 7.4), followed by 25 μL of inhibitor solution (in 100 % methanol) and 25 μL enzyme solution (e.g., human factor Xa, 32 nM in 0.03 M Tris, 0.15 M NaCl, 1 mg/mL HAS); finally, within two minutes, 150 μL aqueous solution of chromogenic substrate (e.g., 0.3 mM BzIle-Glu-Gly-Arg-pNA) is added to start the enzymatic reaction. Final factor Xa concentration is 3.2 nM. The rates of chromogenic substrate hydrolysis reactions provide a linear relationship with the enzymes studied such that free enzyme can be quantitated in reaction mixtures. Data is analyzed directly as rates by the Softmax program to produce [free enzyme] calculations for tight-binding Kass determinations. For apparent Kass determinations, human factor Xa is used to hydrolyze BzIle-Glu-Gly- Arg-pNA (SEQ ID NO: 1); 5.9 nM human thrombin is used to hydrolyze 0.2 mM BzPhe-Val-Arg-pNA; 3.4 nM human plasmin is used with 0.5 mM HD-Val-Leu-Lys-pNA; 1.2 nM human nt-PA is used with 0.8 mM HD-Ile-Pro-Arg-pNA; and 0.4 nM urokinase is used with 0.4 mM pyro-Glu-Gly-Arg-pNA.
(§3) Kass is calculated for a range of concentrations of test compounds which produce hydrolysis inhibition of between 20% and 80% of control and the mean value reported in units of liter per mole. […] For example, the respective Kass values as to factor Xa/thrombin for Examples 41, 60, 106, 115, 1403 and 1414 are 407/16.9, 430/4.2, 3630/308, 3013/40 and 3630/308×10^6 L/mole.

human thrombin = human thrombin (Homo sapiens, UniProt P00734); experiment: Kass determination, chromogenic substrate hydrolysis, thrombin; assay type: biochemical; conditions: apparent association constant, mean value; set range given with 'or greater'
Experimental: as §1, §2, §3

T1 sequence (P00742 235-488 limits assumed): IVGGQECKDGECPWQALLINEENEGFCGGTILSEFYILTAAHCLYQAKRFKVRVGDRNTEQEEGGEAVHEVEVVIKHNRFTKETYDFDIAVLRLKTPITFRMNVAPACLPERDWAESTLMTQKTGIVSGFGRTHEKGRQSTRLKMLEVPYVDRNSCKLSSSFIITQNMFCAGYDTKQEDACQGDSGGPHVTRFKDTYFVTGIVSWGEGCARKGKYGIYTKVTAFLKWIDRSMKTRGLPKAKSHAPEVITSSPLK
T1 sequence (P00742 41-179 partner limits assumed): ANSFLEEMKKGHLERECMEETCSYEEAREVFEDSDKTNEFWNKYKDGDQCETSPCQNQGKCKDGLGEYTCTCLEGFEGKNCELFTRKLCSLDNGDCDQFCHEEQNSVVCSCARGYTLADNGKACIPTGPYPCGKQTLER

SMILES	Kass for factor Xa (human factor Xa) [L/mol]	Kass for thrombin (factor IIa) (human thrombin) [L/mol]	melting point [°C]
NCCOc1cc(N2CCOCC2)ccc1C(=O)Nc1ccc(F)cc1C(=O)Nc1ccc(Cl)cn1 [Example 41, 2-[2-(2-Aminoethoxy)-4-(morpholin-4-yl)benzoylamino]-N-(5-chloro-pyridin-2-yl)-5-fluorobenzamide Trifluoroacetate]	4.07e+08	1.69e+07	–
CC(C)(N)c1ccc(C(=O)Nc2ccccc2C(=O)Nc2ccc(Cl)cn2)c(OC2CCNCC2)c1 [Example 60, 2-[4-(1-Amino-1-methyl)ethyl-2-(piperidin-4-yloxy)benzoylamino]-N-(5-chloropyridin-2-yl)benzamide Bis(trifluoroacetate)]	4.3e+08	4.2e+06	–
CSc1ccc(C(=O)Nc2ccc(Cl)cc2C(=O)Nc2ccc(Cl)cn2)c(OCCCN)c1 [Example 106, 2-[2-(3-Aminopropoxy)-4-(methylthio)benzoylamino]-5-chloro-N-(5-chloropyridin-2-yl)benzamide]	3.63e+09	3.08e+08	–
NCCCOc1cc(N2CCOCC2)ccc1C(=O)Nc1ccc(F)cc1C(=O)Nc1ccc(Cl)cn1 [Example 115, 2-[2-(3-Aminopropoxy)-4-(morpholin-4-yl)benzoylamino]-N-(5-chloropyridin-2-yl)-5-fluorobenzamide]	3.013e+09	4e+07	–

Other lines, results leading:

Kass for factor Xa (human factor Xa) [L/mol]	Kass for thrombin (factor IIa) (human thrombin) [L/mol]	melting point [°C]	SMILES
–	–	153.6 to 154.5	CC(C)(C)c1ccc(CNc2ccc(Cl)cc2C(=O)Nc2ccc(Cl)cn2)c(OC2CCNCC2)c1 [Example 56, 2-[4-(tert-Butyl)-2-(piperidin-4-yloxy)benzylamino]-5-chloro-N-(5-chloropyridin-2-yl)benzamide]
–	–	169 to 170	CC(C)(C)c1ccc(CNc2ccccc2C(=O)Nc2ccc(Cl)cn2)c(OC2CCNCC2)c1 [Example 59, 2-[4-(tert-Butyl)-2-(piperidin-4-yloxy)benzylamino]-N-(5-chloro-pyridin-2-yl)benzamide]
